Test results taken from patent publication US7371536B2, “Methods for transporting vitamin C” (priority 1999, dated 2008).

The compounds below were run against T1, human SVCT1 (Homo sapiens, UniProt Q9UHI7) (assay: Two-microelectrode voltage-clamp of Xenopus oocytes expressing human SVCT1). Details: 500 μM, −50 mV.
T1 construct: expressed in transfected cells; host or cells: Xenopus laevis oocytes injected with cRNA (vector pTLN2)
Format: cell-based
Procedure: (§1) Functional characterization in Xenopus oocytes—SVCT1 and SVCT2 cDNAs were subcloned into the pTLN2 vector (to improve functional expression in oocytes) and used for cRNA synthesis in vitro using the MEGAscript kit and T7 RNA polymerase (from Ambion). Oocytes were isolated from Xenopus laevis, treated with collagenase A and maintained at 18° C. in modified Barths' medium. Oocytes were injected with 15 ng SVCT1 or SVCT2 cRNA or water only. The radiotracer uptake and voltage-clamp experiments described below were conducted 2-5 days post-injection in standard medium of composition 100 mM NaCl, 2 mM KCl, 1 mM CaCl2, 1 mM MgCl2, and 10 mM HEPES (buffered to pH 7.5 with Tris base). For low-Na^+ or Na^+-free media, NaCl was replaced with choline chloride. For pH-dependence experiments, Na^+ media were buffered to between pH 5.5 and pH 8.0 using 0-5 mM MES, 0-5 mM HEPES and 0-5 mM Tris base. L-Ascorbic acid-containing solutions were always freshly prepared and used immediately. Radiotracer uptake was determined by incubating 8-12 oocytes for 30 min (within the time-course of linear uptake) in standard Na^+, low-Na^+ or Na^+-free media with 10-500 μM L-[1-^14C]ascorbic acid (final specific activity ≈0.3 GBq/mmol). Oocytes were solubilized with 10% SDS and carbon-14 content measured by liquid scintillation counting. A two-microelectrode voltage-clamp was used to measure currents associated with SVCT1 expressed in oocytes. Oocytes were superfused at 22° C. in standard Na^+ medium and clamped at −50 mV. Current was continuously monitored by sampling at 1 Hz. Test solutions were always washed out with substrate-free, Na^+-free medium at pH 7.5 for several minutes. Once again, saturation kinetics data were fit to a modified Hill equation in which I and Imax were replaced by uptake V and maximal velocity Vmax for analysis of radiotracer uptake data.

T1 sequence (Q9UHI7 whole entry): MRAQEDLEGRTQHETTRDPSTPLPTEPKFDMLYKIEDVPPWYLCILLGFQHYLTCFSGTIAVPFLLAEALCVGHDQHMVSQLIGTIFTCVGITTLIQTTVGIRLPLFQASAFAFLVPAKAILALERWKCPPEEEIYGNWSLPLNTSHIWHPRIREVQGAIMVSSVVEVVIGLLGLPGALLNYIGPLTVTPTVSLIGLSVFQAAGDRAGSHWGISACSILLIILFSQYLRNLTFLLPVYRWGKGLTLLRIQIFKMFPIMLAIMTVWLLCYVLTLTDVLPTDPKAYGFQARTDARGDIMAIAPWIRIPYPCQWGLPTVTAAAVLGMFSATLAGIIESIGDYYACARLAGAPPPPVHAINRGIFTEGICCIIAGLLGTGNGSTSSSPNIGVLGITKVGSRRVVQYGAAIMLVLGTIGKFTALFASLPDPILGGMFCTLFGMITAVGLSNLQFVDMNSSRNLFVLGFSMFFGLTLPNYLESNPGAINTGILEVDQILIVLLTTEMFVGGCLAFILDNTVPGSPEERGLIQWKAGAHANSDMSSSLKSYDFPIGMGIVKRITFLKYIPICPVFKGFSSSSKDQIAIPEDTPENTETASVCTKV

| SMILES | transport / substrate selectivity (in words) |
| --- | --- |
| O=C1O[C@H]([C@@H](O)CO)C(O)=C1OP(=O)(O)O [L-ascorbic acid-2-phosphate] | barely transported |

What follows are compounds tested against T2, rat SVCT1 (Rattus norvegicus, UniProt Q9WTW7) (assay: Two-microelectrode voltage-clamp of Xenopus oocytes expressing rat SVCT1). Details: at 200 μM L-ascorbic acid, −50 mV.
T2 construct: expressed in transfected cells; host or cells: Xenopus laevis oocytes injected with cRNA
Format: cell-based
Procedure: Rat SVCT1 and SVCT2 clones were obtained by isolating SVCT1 cDNA from rat kidney by expression cloning as described in Hediger et al., Methods Enzymol. 296:17-52 (1998). The SVCT2 cDNA was subsequently isolated by PCR-based homology screening of a rat brain cDNA library. […] Radiotracer and voltage-clamp experiments were performed (at 22° C.) in Xenopus oocytes two to seven days after injection with ˜25 ng of SVCT1 or SVCT2 cRNA synthesized in vitro. Radiotracer uptake was determined by incubating 6-10 oocytes for 30 or 60 min in standard 100 mM Na^+ or Na^+-free media with 10-600 μM L-[^14C]ascorbic acid.
Functional characterization of SVCT1 and SVCT2 in Xenopus oocytes—Oocytes were isolated from Xenopus laevis (under 2-aminoethylbenzoate anaesthesia), treated with collagenase A and stored at 18° C. in modified Barths' medium. Oocytes were injected with ≈25 ng of SVCT1 or SVCT2 cRNA synthesized in vitro, or water only (control), and incubated 2-7 days before radiotracer or voltage-clamp experiments were performed. Standard Na^+ uptake medium comprised 100 mM NaCl, 2 mM KCl, 1 mM CaCl2, 1 mM MgCl2, 10 mM HEPES (pH 7.5 with Tris base). For Na^+-free or low-Na^+ media, NaCl was replaced by equimolar choline chloride; likewise, Cl^− was replaced by gluconate for Cl^−-free medium. For pH-sensitivity experiments, Na^+ media were buffered at pH 5.5-8.0 using 0-5 mM MES, 0-5 mM HEPES and 0-5 mM Tris base. L-Ascorbic acid-containing solutions were freshly-prepared (without dithiothreitol) and used immediately.
Radiotracer uptake was determined by incubating 6-10 oocytes for 30 or 60 min in standard Na^+ or Na^+-free media (at 22° C.) with 10-600 μM L-[1-^14C]ascorbic acid (final specific activity 0.3 GBq/mmol). Oocytes were solubilized with 10% SDS and [^14C]-content was measured by liquid scintillation counting. A two-microelectrode voltage-clamp was used to measure currents in control oocytes and oocytes injected with rat SVCT1 or rat SVCT2 cRNA. Microelectrodes (resistance 0.5-5 MΩ) were filled with 3 M KCl. Oocytes were superfused at 22° C. in standard Na^+ medium and clamped at a holding potential (Vh) of −50 mV. For continuous current monitoring at Vh=−50 mV, the current was low-pass filtered at 20 Hz (sampling at 1 Hz). Additionally, step-changes in membrane potential (Vm) were applied (from +50 mV to −150 mV in 20-mV increments), each for a duration of 100 ms, before and after the addition of substrate; current was low-pass filtered at 500 Hz and digitized at 5 kHz. Test solutions were always washed out with substrate-free medium (100 mM choline chloride) at pH 7.5 for several minutes. Steady-state data (obtained by averaging the points over the final 16.7 ms at each Vm step when step-changes were applied) were fitted to equation (1) below, for which I is the evoked current (i.e., the difference in steady-state current measured in the presence and absence of substrate), Imax the derived current maximum, S the concentration of substrate S (Na^+ or L-ascorbic acid),
[formula] the substrate concentration at which current was half-maximal, and nH the Hill coefficient for S. (For radiotracer experiments, I was replaced with velocity V and Imax replaced with the derived maximal velocity, Vmax.)

T2 sequence (Q9WTW7 whole entry): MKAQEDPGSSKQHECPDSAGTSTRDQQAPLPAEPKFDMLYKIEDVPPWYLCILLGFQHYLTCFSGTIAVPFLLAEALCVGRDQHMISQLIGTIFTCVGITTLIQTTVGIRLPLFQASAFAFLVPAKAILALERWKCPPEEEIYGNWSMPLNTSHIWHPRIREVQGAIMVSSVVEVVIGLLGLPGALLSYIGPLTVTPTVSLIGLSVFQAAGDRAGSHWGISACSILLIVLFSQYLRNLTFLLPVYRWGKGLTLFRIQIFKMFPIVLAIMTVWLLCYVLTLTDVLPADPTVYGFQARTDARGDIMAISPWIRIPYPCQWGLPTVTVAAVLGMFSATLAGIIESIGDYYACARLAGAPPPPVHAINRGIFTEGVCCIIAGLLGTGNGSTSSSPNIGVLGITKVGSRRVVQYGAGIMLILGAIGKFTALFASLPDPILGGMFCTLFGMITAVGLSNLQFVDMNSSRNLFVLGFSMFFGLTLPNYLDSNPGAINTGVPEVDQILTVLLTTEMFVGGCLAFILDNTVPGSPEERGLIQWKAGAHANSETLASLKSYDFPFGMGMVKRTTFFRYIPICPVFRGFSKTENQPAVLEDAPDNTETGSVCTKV

| SMILES | K0.5 for Na^+ (concentration at which current was half-maximal) |
| --- | --- |
| [Na+] [Na^+] | 40 mM |

Same assay, conditions: evoked currents, −50 mV

| SMILES | Hill coefficient (nH) |
| --- | --- |
| [Na+] [Na^+] | ≈ 2 |

Same assay, conditions: oocytes expressing SVCT1

| SMILES | evoked current / substrate selectivity (in words) |
| --- | --- |
| O=c1cc[nH]c(=O)[nH]1 [uracil] | excluded |

The compounds below were run against T1, human SVCT1 (assay: L-[14C]ascorbic acid radiotracer uptake in Xenopus oocytes expressing human SVCT1). Details: not given.
Format: cell-based
Procedure: as §1, with “Radiotracer uptake was determined by incubating 8-12 oocytes for 30 min (within the time-course of linear uptake) in standard Na^+, low-Na^+ or Na^+-free media with 10-500 μM L-[1-^14C]ascorbic acid (final specific activity ≈0.3 GBq/mmol).” left out

| SMILES | ability to substitute for Na^+ in driving SVCT1-mediated transport |
| --- | --- |
| [Li+] [Li^+] | unable to substitute for Na^+ |

Same assay, conditions: L-ascorbic acid uptake

| SMILES | K0.5 for Na^+ |
| --- | --- |
| [Na+] [Na^+] | 15 to 25 mM |

Same assay, conditions: data not shown

| SMILES | inhibition of L-[14C]ascorbic acid uptake (in words) | inhibition of L-[14C]ascorbic acid uptake |
| --- | --- | --- |
| Nc1ncnc2c1ncn2C1CC(O)C(CO)O1 (stereo not drawn) [2-deoxyadenosine] | none resulted in any significant inhibition | – |
| O=c1ccn([C@@H]2O[C@H](COP(=O)(O)OP(=O)(O)OP(=O)(O)O)[C@@H](O)[C@H]2O)c(=O)[nH]1 [UTP] | none resulted in any significant inhibition | – |
| Nc1ncnc2c1ncn2[C@@H]1O[C@H](COP(=O)(O)O)[C@@H](O)[C@H]1O [AMP] | none resulted in any significant inhibition | – |
| Nc1ncnc2nc[nH]c12 [adenine] | none resulted in any significant inhibition | – |
| O=C[C@@H](O)[C@@H](O)[C@@H](O)CO [L-ribose] | not significantly inhibited | – |
| Nc1ncnc2c1ncn2[C@@H]1O[C@H](COP(=O)(O)OP(=O)(O)O)[C@@H](O)[C@H]1O [ADP] | none resulted in any significant inhibition | – |
| Cc1c[nH]c(=O)[nH]c1=O [thymine] | none resulted in any significant inhibition | – |
| Cc1cn([C@H]2C[C@H](O)[C@@H](COP(=O)(O)OP(=O)(O)OP(=O)(O)O)O2)c(=O)[nH]c1=O [dTTP] | none resulted in any significant inhibition | – |
| O=CC[C@@H](O)[C@H](O)[C@H](O)CO [2-deoxy-D-glucose] | not significantly inhibited | – |
| Nc1nc2c(ncn2[C@@H]2O[C@H](CO)[C@@H](O)[C@H]2O)c(=O)[nH]1 [guanosine] | none resulted in any significant inhibition | – |
| O=c1cc[nH]c(=O)[nH]1 [uracil] | none resulted in any significant inhibition | – |
| CCCCCCCCCCCCCCCC(=O)OC[C@H](O)[C@H]1OC(=O)C(O)=C1O [L-ascorbic acid-6-palmitate] | – | 20-30% |
| Nc1ncnc2c1ncn2[C@@H]1O[C@H](CO)[C@@H](O)[C@H]1O [adenosine] | none resulted in any significant inhibition | – |
| Nc1ncnc2c1ncn2[C@H]1C[C@H](O)[C@@H](COP(=O)(O)OP(=O)(O)OP(=O)(O)O)O1 [dATP] | none resulted in any significant inhibition | – |
| CC(O)C(=O)O (stereo not drawn) [lactic acid] | not significantly inhibited | – |
| Nc1nc2c(ncn2[C@@H]2O[C@H](COP(=O)(O)OP(=O)(O)OP(=O)(O)O)[C@@H](O)[C@H]2O)c(=O)[nH]1 [GTP] | none resulted in any significant inhibition | – |
| O=C(O)CCC(=O)O [succinic acid] | not significantly inhibited | – |
| O=C(O)C(=O)O [oxalic acid] | not significantly inhibited | – |
| OC[C@@H](O)[C@@H](O)[C@H](O)[C@H](O)CO [D-mannitol] | not significantly inhibited | – |
| Nc1ncnc2c1ncn2[C@@H]1O[C@H](COP(=O)(O)OP(=O)(O)OP(=O)(O)O)[C@@H](O)[C@H]1O [ATP] | none resulted in any significant inhibition | – |
| O=c1[nH]c(=O)c2[nH]c(=O)[nH]c2[nH]1 [uric acid] | not significantly inhibited | – |
| O=C[C@H](O)[C@H](O)[C@H](O)CO [D-ribose] | not significantly inhibited | – |
| O=c1ccn([C@@H]2O[C@H](CO)[C@@H](O)[C@H]2O)c(=O)[nH]1 [uridine] | none resulted in any significant inhibition | – |
| Nc1nc2c(ncn2[C@H]2C[C@H](O)[C@@H](COP(=O)(O)OP(=O)(O)OP(=O)(O)O)O2)c(=O)[nH]1 [dGTP] | none resulted in any significant inhibition | – |
| OC[C@H]1O[C@@H](n2cnc3c(O)ncnc32)[C@H](O)[C@@H]1O [inosine] | none resulted in any significant inhibition | – |
| Nc1ccn([C@H]2C[C@H](O)[C@@H](COP(=O)(O)OP(=O)(O)OP(=O)(O)O)O2)c(=O)n1 [dCTP] | none resulted in any significant inhibition | – |
| O=C(CO)[C@@H](O)[C@H](O)[C@H](O)CO [D-fructose] | not significantly inhibited | – |
